Measured values reported in patent US20220388979A1, “QUINOLINE DERIVATIVES AS PROTEIN KINASE INHIBITORS” (B.C.I. PHARMA, priority 2019, published 2022).

Key:
Conditions in all cases: at 50 nM, in duplicate
[1] = target: CSF1R (Homo sapiens, UniProt P07333); assay: Z'-Lyte biochemical kinase assay (SelectScreen), CSF1R
Experimental: (§1) A biochemical assay was performed in order to measure the protein kinase inhibition. The kinase binding assays were performed against different kinases using the SelectScreen Biochemical Kinase Profiling Service® platform (Thermo Fisher Scientific). For all kinases, the Z′-Lyte® biochemical kinase assay technology was used. Inhibitions were measured at 50 nM in duplicate for each compound and are reported in percentage.

[2] = target: T1, FLT3 (Homo sapiens, UniProt P36888); assay: Z'-Lyte biochemical kinase assay (SelectScreen), FLT3
T1 sequence (P36888 27-993): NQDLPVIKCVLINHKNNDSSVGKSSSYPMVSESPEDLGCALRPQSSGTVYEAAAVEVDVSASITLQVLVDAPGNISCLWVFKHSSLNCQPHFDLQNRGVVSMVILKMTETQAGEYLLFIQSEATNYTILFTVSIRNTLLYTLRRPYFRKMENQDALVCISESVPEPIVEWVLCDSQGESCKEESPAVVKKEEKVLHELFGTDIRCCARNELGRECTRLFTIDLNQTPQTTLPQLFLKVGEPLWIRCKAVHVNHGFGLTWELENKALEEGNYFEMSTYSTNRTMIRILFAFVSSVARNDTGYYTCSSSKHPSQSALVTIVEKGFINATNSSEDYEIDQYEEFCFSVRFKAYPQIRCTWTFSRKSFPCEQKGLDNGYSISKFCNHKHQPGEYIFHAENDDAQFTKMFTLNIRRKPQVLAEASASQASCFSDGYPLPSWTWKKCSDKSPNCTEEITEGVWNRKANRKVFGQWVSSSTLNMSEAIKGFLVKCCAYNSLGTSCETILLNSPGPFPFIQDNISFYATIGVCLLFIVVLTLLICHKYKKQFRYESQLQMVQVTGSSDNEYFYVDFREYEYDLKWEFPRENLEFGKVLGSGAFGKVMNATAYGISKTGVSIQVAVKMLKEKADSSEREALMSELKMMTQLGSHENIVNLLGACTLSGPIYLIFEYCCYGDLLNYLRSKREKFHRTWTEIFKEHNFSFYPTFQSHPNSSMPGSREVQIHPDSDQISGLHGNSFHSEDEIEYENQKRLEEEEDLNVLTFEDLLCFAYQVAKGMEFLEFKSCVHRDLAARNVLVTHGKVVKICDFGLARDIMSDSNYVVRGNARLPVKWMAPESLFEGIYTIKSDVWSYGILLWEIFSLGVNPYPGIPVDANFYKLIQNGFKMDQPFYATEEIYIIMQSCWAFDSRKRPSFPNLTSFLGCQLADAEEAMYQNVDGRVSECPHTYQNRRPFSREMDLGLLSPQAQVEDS
Experimental: as §1

[3] = target: Kit (Homo sapiens, UniProt P10721); assay: Z'-Lyte biochemical kinase assay (SelectScreen), Kit
Experimental: as §1

[4] = target: PDGFRA (Homo sapiens, UniProt P16234); assay: Z'-Lyte biochemical kinase assay (SelectScreen), PDGFRA
Experimental: as §1

[5] = target: PDGFRB (Homo sapiens, UniProt P09619); assay: Z'-Lyte biochemical kinase assay (SelectScreen), PDGFRB
Experimental: as §1

Chain of CSF1R (P07333 20-972): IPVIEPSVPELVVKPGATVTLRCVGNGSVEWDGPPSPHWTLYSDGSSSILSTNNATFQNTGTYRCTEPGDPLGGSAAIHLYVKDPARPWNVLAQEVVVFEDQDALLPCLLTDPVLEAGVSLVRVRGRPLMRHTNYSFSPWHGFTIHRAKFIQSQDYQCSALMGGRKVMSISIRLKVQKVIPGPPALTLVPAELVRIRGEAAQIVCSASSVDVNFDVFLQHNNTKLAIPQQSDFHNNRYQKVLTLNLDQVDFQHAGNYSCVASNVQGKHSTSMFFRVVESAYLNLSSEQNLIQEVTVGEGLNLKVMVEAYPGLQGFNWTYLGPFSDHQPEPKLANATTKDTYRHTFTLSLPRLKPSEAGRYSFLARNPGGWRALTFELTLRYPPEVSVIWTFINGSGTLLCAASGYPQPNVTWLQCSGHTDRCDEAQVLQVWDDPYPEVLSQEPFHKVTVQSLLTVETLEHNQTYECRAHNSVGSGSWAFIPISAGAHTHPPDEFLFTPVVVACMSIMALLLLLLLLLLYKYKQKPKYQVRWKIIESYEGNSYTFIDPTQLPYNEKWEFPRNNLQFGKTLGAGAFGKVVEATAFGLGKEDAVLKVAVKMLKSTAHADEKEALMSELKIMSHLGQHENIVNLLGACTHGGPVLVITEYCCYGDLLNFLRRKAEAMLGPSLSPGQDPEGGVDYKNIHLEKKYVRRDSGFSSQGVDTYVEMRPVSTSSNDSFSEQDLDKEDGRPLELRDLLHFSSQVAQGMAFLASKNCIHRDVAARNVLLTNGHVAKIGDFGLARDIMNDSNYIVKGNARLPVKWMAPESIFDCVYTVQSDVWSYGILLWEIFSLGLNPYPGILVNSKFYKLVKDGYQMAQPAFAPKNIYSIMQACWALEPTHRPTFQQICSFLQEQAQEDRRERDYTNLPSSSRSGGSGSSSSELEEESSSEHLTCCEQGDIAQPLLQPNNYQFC
Chain of PDGFRB (P09619 33-1106): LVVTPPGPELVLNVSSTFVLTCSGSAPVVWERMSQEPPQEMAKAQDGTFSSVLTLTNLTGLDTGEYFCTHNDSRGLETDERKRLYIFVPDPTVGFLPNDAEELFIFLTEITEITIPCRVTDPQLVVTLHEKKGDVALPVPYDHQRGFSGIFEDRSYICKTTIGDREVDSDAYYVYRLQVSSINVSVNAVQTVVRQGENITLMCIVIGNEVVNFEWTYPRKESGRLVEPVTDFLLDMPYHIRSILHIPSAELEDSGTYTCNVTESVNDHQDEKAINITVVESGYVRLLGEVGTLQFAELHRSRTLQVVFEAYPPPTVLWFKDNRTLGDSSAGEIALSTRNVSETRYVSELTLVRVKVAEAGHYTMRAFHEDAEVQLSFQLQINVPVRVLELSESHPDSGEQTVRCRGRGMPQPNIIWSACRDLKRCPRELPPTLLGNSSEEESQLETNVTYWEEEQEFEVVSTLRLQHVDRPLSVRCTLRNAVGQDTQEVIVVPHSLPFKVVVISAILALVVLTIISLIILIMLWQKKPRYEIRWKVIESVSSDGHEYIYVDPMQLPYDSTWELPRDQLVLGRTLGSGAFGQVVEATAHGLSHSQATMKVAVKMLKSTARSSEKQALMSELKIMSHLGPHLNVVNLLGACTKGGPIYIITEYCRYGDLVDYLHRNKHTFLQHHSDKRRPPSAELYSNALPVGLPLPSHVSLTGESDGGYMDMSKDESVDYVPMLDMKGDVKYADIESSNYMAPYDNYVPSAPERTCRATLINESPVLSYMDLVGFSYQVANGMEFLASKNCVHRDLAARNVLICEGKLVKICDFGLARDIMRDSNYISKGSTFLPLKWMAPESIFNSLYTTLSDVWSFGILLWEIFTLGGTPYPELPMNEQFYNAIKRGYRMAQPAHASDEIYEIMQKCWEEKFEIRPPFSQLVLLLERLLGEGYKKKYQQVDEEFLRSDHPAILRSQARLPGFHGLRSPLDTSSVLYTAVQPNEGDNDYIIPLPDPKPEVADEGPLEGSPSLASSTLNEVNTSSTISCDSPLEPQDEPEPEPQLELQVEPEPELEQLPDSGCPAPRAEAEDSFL
Chain of PDGFRA (P16234 24-1089): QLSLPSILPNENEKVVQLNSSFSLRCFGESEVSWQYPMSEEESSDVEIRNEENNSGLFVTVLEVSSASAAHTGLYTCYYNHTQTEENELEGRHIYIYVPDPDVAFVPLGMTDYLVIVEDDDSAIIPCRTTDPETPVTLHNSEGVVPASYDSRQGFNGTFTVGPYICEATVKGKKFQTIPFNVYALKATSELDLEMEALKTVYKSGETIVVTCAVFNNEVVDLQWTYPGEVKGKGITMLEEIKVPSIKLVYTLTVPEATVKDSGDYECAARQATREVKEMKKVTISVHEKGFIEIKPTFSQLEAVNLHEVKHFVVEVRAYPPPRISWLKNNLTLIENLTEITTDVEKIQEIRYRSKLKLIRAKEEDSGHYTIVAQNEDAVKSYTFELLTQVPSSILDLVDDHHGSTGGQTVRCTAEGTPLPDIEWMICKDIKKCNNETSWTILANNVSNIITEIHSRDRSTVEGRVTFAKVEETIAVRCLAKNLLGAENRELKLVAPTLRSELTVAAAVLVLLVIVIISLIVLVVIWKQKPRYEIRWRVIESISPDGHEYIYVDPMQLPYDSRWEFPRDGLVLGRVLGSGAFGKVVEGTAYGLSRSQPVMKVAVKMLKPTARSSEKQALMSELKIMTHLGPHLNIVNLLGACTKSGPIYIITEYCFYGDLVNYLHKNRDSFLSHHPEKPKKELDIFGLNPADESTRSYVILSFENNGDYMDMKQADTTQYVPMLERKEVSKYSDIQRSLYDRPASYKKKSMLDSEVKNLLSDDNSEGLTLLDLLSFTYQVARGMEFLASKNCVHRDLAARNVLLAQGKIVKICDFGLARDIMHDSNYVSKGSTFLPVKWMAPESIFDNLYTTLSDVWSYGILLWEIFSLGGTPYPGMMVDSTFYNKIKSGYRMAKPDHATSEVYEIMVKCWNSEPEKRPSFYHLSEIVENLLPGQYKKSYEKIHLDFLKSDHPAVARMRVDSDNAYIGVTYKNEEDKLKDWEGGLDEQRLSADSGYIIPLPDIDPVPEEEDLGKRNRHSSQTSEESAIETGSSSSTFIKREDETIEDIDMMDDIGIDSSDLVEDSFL
Chain of Kit (P10721 26-976): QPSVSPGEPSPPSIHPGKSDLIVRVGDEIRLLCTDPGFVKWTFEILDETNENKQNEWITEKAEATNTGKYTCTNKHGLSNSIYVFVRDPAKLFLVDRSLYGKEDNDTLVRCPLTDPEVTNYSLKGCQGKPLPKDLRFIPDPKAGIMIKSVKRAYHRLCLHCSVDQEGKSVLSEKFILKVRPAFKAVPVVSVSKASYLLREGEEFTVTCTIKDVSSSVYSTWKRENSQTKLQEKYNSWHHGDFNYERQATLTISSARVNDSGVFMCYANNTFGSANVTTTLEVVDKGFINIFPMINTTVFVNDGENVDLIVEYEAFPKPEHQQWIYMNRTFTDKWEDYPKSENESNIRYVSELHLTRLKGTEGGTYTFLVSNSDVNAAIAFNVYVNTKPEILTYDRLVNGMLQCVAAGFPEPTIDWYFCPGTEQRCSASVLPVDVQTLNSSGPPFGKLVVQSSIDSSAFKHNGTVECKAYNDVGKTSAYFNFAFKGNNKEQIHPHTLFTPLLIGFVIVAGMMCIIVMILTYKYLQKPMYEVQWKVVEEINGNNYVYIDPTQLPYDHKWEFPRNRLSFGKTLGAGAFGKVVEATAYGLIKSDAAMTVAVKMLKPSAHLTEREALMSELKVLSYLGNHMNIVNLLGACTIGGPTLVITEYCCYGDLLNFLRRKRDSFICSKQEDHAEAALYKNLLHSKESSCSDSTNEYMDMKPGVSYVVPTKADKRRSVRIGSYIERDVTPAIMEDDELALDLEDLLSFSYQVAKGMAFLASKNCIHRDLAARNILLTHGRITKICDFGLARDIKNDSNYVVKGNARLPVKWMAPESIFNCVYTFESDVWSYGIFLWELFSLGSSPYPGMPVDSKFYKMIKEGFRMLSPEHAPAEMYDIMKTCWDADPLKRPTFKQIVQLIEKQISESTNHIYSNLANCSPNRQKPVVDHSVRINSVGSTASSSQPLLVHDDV

SMILES | inhibition at 0.05 µM [1] [%] | inhibition at 0.05 µM [2] [%] | inhibition at 0.05 µM [3] [%] | inhibition at 0.05 µM [4] [%] | inhibition at 0.05 µM [5] [%]
O=C(NCc1ccc(F)cc1)c1cccc(Oc2ccnc3ccccc23)c1 [compound 16] | 81 | 7 | 15 | 23 | 24
Cc1c(Oc2ccnc3cc(N(C)C)ccc23)cccc1C(=O)NCc1cccc(F)c1 [compound 152] | 77 | 13 | 3 | 10 | 25
COc1ccc2c(Oc3cccc(C(=O)NCc4ccccc4)c3)ccnc2c1 [compound 85] | 85 | 26 | 31 | 22 | 28
COc1ccc2c(Oc3cc(F)cc(C(=O)NCc4ccccc4OC)c3)ccnc2c1 [compound 88] | 85 | 29 | 30 | 31 | 53
COc1cc2nccc(Oc3cccc(C(=O)NCCc4ccccc4)c3)c2cc1OC [compound 25] | 95 | 48 | 32 | 27 | 39
COc1cc2nccc(Oc3cccc(C(=O)NCC4CCCCC4)c3)c2cc1OC [compound 27] | 93 | 39 | 26 | 23 | 44
O=C(NCc1cccc(F)c1)c1cccc(Oc2ccnc3ccccc23)c1 [compound 10] | 71 | 18 | 11 | 17 | 24
COc1ccccc1CNC(=O)c1cc(F)cc(Oc2ccnc3cc(OC)c(OC)cc23)c1 [compound 89] | 86 | 36 | 21 | 49 | 48
Cc1c(Oc2ccnc3ccccc23)cccc1C(=O)NCc1ccc(C#N)cc1 [compound 30] | 72 | 10 | 8 | 8 | 11
COc1ccc2c(Oc3cccc(C(=O)NCc4ccncc4)c3C)ccnc2c1 [Compounds 32] | 96 | 8 | 2 | 2 | 6
COc1cc2nccc(Oc3cccc(C(=O)NCc4cccc(F)c4)c3C)c2cc1OC [compound 107] | 85 | 19 | 11 | 22 | 25
COc1cc2nccc(Oc3cc(C(=O)NCc4cccc(F)c4)ccc3F)c2cc1OC [compound 94] | 93 | 27 | 32 | 30 | 45
COc1cc2nccc(Oc3cc(C(=O)N[C@H](C)C4CCCCC4)ccc3F)c2cc1OC [compound 93] | 82 | 3 | 2 | 23 | 24
COc1ccccc1CNC(=O)c1cccc(Oc2ccnc3cc(OC)c(OC)cc23)c1 [compound 26] | 102 | 47 | 32 | 35 | 50
Cc1c(Oc2ccnc3ccccc23)cccc1C(=O)NCc1cccc(F)c1 [compound 103] | 73 | 8 | 7 | -5 | 13
CNc1ccc2c(Oc3cccc(C(=O)NCc4cccc(F)c4)c3C)ccnc2c1 [compound 151] | 79 | 0 | 4 | 9 | 21

SMILES | inhibition at 0.05 µM [1] [%] | inhibition at 0.05 µM [2] [%] | inhibition at 0.05 µM [3] [%] | inhibition at 0.05 µM [4] [%] | inhibition at 0.05 µM [5] [%]
O=C(NCc1cccnc1)c1cccc(Oc2ccnc3ccccc23)c1 [compound 74] | 83 | 25 | 20 | 7 | 12
COc1ccc2c(Oc3cccc(C(=O)NCc4cccc(F)c4)c3C)ccnc2c1 [compound 33] | 78 | 16 | 4 | 10 | 14
COc1ccccc1CNC(=O)c1ccc(F)c(Oc2ccnc3cc(OC)c(OC)cc23)c1 [compound 92] | 94 | 50 | 13 | 24 | 60
CNc1ccc2c(Oc3cc(C(=O)NCc4ccncc4)ccc3F)ccnc2c1 [compound 142] | 61 | 9 | 13 | 11 | 9
O=C(NCc1cncc(F)c1)c1cccc(Oc2ccnc3ccccc23)c1 [compound 17] | 83 | -4 | 14 | 15 | 12
O=C(NCc1cccc(F)c1)c1ccc(F)c(Oc2ccnc3ccccc23)c1 [compound 101] | 81 | 37 | 27 | 25 | 40
COc1cc2nccc(Oc3cccc(C(=O)NCc4ccccc4)c3)c2cc1OC [compound 84] | 91 | 37 | 34 | 16 | 54
O=C(NCc1ccncc1)c1cccc(Oc2ccnc3ccccc23)c1 [compound 75] | 79 | 16 | 20 | -1 | 10
Cc1c(Oc2ccnc3cc(Cl)ccc23)cccc1C(=O)NCc1ccncc1 [Compounds 108] | 88 | 6 | 10 | 11 | 13
COc1cc2nccc(Oc3cc(F)cc(C(=O)N[C@H](C)C4CCCCC4)c3)c2cc1OC [compound 90] | 77 | 26 | 9 | 28 | 28
COc1cc2nccc(Oc3cccc(C(=O)NCc4cncc(F)c4)c3)c2cc1OC [compound 29] | 93 | 2 | 17 | 21 | 28
CN(C)c1ccc2c(Oc3cccc(C(=O)NCc4ccncc4)c3)ccnc2c1 [compound 140] | 83 | 8 | 3 | 11 | 19
COc1ccccc1CNC(=O)c1cccc(Oc2ccnc3ccccc23)c1 [compound 7] | 85 | 14 | 20 | 16 | 22
CN(C)c1ccc2c(Oc3cc(C(=O)NCc4ccncc4)ccc3F)ccnc2c1 [compound 143] | 77 | 3 | 8 | 14 | 32
O=C(NCC1CCCCC1)c1cccc(Oc2ccnc3ccccc23)c1 [compound 3] | 71 | 6 | 7 | 18 | 27
COc1ccc2c(Oc3cc(C(=O)NCc4ccncc4)ccc3F)ccnc2c1 [compound 98] | 79 | 6 | 5 | 6 | 23
